Data as given in PubChem BioAssay (NCI).
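48-hour exposure; five concentrations; linearly interpolated endpoints. Definition used: TGI = concentration required for complete inhibition of growth.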

How the values were obtained:
Assay in all cases: inhibition of tumour cell growth, NCI panel, 48 h
[1] = test system: 786-0 renal
[2] = test system: A498 renal
[3] = test system: A549 NSCLC
[4] = test system: ACHN renal
[5] = test system: CAKI-1 renal
[6] = test system: CCRF-CEM leukemia
[7] = test system: COLO 205 colon
[8] = test system: DLD-1 colon
[9] = test system: DMS 114 small cell lung
[10] = test system: EKVX NSCLC
[11] = test system: HCC-2998 colon
[12] = test system: HL-60(TB) leukemia
[13] = test system: HOP-62 NSCLC
[14] = test system: HOP-92 NSCLC
[15] = test system: HT29 colon
[16] = test system: IGROV1 ovarian
[17] = test system: K-562 leukemia
[18] = test system: KM12 colon
[19] = test system: KM20L2 colon
[20] = test system: LOX IMVI melanoma
[21] = test system: LXFL 529 NSCLC
[22] = test system: M14 melanoma
[23] = test system: MALME-3M melanoma
[24] = test system: MOLT-4 leukemia
[25] = test system: NCI-H226 lung
[26] = test system: NCI-H23 lung
[27] = test system: NCI-H460 lung
[28] = test system: NCI-H522 lung
[29] = test system: OVCAR-3 ovarian
[30] = test system: OVCAR-4 ovarian
[31] = test system: OVCAR-5 ovarian
[32] = test system: OVCAR-8 ovarian
[33] = test system: RPMI-8226 leukemia
[34] = test system: RXF 393 renal
[35] = test system: SF-268 CNS
[36] = test system: SF-295 CNS
[37] = test system: SF-539 CNS
[38] = test system: SK-MEL-2 melanoma
[39] = test system: SK-MEL-28 melanoma
[40] = test system: SK-MEL-5 melanoma
[41] = test system: SN12C renal
[42] = test system: SNB-19 CNS
[43] = test system: SNB-75 CNS
[44] = test system: SW-620 colon
[45] = test system: TK-10 renal
[46] = test system: U251 CNS
[47] = test system: UACC-257 melanoma
[48] = test system: UO-31 renal
[49] = test system: XF 498 CNS
[50] = test system: HCT-15 colon
[51] = test system: SK-OV-3 ovarian

Cc1[nH]c2cc([N+](=O)[O-])ccc2c1[N+](=O)[O-]
TGI [1]: > 100 µM
TGI [2]: 50.4 µM
TGI [3]: 69.6 µM
TGI [4]: 50.3 µM
TGI [5]: 47.1 µM
TGI [6]: 64.6 µM
TGI [7]: 33 µM
TGI [8]: > 100 µM
TGI [9]: 33.6 µM
TGI [10]: 49.6 µM
TGI [11]: 52.7 µM
TGI [12]: 55.1 µM
TGI [13]: 32.8 µM
TGI [14]: 23.8 µM
TGI [15]: 97 µM
TGI [16]: > 100 µM
TGI [17]: > 100 µM
TGI [18]: 67.6 µM
TGI [19]: > 100 µM
TGI [20]: 76.2 µM
TGI [21]: 48.3 µM
TGI [22]: 44 µM
TGI [23]: 54.4 µM
TGI [24]: 71.4 µM
TGI [25]: 71.8 µM
TGI [26]: 58.6 µM
TGI [27]: 70.3 µM
TGI [28]: 38.4 µM
TGI [29]: > 100 µM
TGI [30]: 92 µM
TGI [31]: 79 µM
TGI [32]: 79.8 µM
TGI [33]: 58.4 µM
TGI [34]: 54.1 µM
TGI [35]: > 100 µM
TGI [36]: 48.8 µM
TGI [37]: 57.1 µM
TGI [38]: 31 µM
TGI [39]: 77.8 µM
TGI [40]: 27.6 µM
TGI [41]: 95 µM
TGI [42]: 56.5 µM
TGI [43]: 57.5 µM
TGI [44]: 97.9 µM
TGI [45]: 75.8 µM
TGI [46]: 71.2 µM
TGI [47]: 43.9 µM
TGI [48]: 36.2 µM
TGI [49]: 50 µM

COc1cccc2c1C(=O)c1c(O)c3c(c(O)c1C2=O)C[C@@](O)(C(=O)CO)CC3OC1CC(NCCOCC(OC(C)=O)OC(C)=O)C(O)C(C)O1 (some centres not stated)
TGI [1]: 3.16 µM
TGI [3]: > 100 µM
TGI [5]: > 100 µM
TGI [6]: > 100 µM
TGI [8]: 0.38 µM
TGI [50]: 0.0144 µM
TGI [12]: > 100 µM
TGI [13]: 0.009 µM
TGI [16]: 3.04 µM
TGI [17]: > 100 µM
TGI [21]: 12.2 µM
TGI [30]: 31.1 µM
TGI [51]: 47.9 µM
TGI [41]: 1.32 µM
TGI [42]: > 100 µM
TGI [44]: 1.71 µM
TGI [45]: > 100 µM
TGI [46]: 1.23 µM
